Source: US12091426B2, “Bifunctional degraders of hematopoietic progenitor kinase and therapeutic uses thereof” (Nurix Therapeutics, Inc., priority 2021, dated 2024)

Biological target: T1, HPK1 (Homo sapiens, UniProt Q92918)
T1 construct: A HiBiT tag was introduced by CRISPR on the N terminus of HPK1 in Jurkat cells; host or cells: Jurkat cells (ATCC TIB-152), monoclonal line with CRISPR knock-in of HiBiT at the endogenous HPK1 locus
Test: HPK1 Cellular HiBit Degradation Assay
Type: cell-based
Conditions: HiBiT HPK1 Jurkat cells, 24 hrs; for DC50: concentration at which 50% of HPK1 was remaining, read-out: DC50 Category; for Dmax: Jurkat, maximum degradation vs DMSO vehicle control, read-out: Dmax Category
In short: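 Degraders are dosed in an 11-point series (10 uM to 0.1 nM final) onto Jurkat cells carrying an N-terminal HiBiT tag on endogenous HPK1. After 24 hrs at 37° C, lysis-based HiBiT luminescence quantifies remaining HPK1 relative to vehicle, and curve fitting gives DC50 and Dmax.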

T1 sequence (Q92918 whole entry): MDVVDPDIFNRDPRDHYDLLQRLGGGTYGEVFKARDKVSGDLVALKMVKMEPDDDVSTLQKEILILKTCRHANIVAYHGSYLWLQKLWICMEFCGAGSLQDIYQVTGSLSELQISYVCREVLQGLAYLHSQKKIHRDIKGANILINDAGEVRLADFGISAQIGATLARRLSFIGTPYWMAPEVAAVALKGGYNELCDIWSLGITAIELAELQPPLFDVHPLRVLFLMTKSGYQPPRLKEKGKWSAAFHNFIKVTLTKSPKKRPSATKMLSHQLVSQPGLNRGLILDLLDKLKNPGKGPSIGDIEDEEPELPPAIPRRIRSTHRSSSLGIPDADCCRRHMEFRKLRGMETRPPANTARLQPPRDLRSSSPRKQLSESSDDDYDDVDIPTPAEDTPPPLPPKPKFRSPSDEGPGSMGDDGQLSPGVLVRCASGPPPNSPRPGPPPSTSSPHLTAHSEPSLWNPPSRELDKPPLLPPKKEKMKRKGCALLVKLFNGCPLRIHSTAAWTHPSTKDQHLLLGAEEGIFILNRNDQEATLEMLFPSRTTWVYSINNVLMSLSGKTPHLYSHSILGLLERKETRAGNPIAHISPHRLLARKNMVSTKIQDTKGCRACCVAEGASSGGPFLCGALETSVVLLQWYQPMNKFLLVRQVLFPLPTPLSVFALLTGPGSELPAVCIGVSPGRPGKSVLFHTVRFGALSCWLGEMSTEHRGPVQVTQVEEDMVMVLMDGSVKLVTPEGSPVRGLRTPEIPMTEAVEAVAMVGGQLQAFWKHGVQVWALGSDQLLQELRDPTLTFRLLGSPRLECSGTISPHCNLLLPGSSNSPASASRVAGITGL

| SMILES | DC50 | Dmax |
| --- | --- | --- |
| CC(C)n1cnc2cc(-c3ccc4c(c3)N([C@H]3C[C@@H](N5CCCCC5)C3)C(=O)C43CCN(C(=O)c4cc(C(=O)N5CCN(c6ccc7c(c6)C(=O)N(C6CCC(=O)NC6=O)C7=O)CC5)n(C)n4)CC3)nc(Nc3ccccc3F)c21 (mixture of isomers) [Example 146, 2-[(3RS)-2,6-dioxopiperidin-3-yl]-5-(4-{3-[(6-{4-[(2-fluorophenyl)amino]-3-(propan-2-yl)-3H-imidazo[4,5-c]pyridin-6-yl}-2-oxo-1-[(1S,3S)-3-(piperidin-1-yl)cyclobutyl]-1,2-dihydrospiro[indole-3,4′-piperidin]-1′-yl)carbonyl]-1-methyl-1H-pyrazole-5-carbonyl}piperazin-1-yl)-2,3-dihydro-1H-isoindole-1,3-dione] | 100 to 500 nM | 70 to 85% |
| CC(C)n1cnc2cc(-c3ccc4c(c3)N([C@H]3C[C@@H](N5CCCCC5)C3)C(=O)C43CCN(C(=O)C4(C)CCN(C(=O)CN5CCC(c6ccc(C7CCC(=O)NC7=O)cn6)CC5)CC4)CC3)nc(NC3CC3)c21 (mixture of isomers) [Example 224, (3RS)-3-[6-(1-{2-[4-({6-[4-(cyclopropylamino)-3-(propan-2-yl)-3H-imidazo[4,5-c]pyridin-6-yl]-2-oxo-1-[(1S,3S)-3-(piperidin-1-yl)cyclobutyl]-1,2-dihydrospiro[indole-3,4′-piperidin]-1′-yl}carbonyl)-4-methylpiperidin-1-yl]-2-oxoethyl}piperidin-4-yl)pyridin-3-yl]piperidine-2,6-dione] | 100 to 500 nM | 70 to 85% |
| CC(C)n1cnc2cc(-c3ccc4c(c3)N([C@H]3C[C@@H](N5CC6CCC(C6)C5)C3)C(=O)C43CCN(C(=O)C4(C)CCN(C(=O)C5CCN(c6ccc(C7CCC(=O)NC7=O)cn6)CC5)CC4)CC3)nc(NC3CC3)c21 (mixture of isomers) [Example 217, (3RS)-3-(6-{4-[4-({6-[4-(cyclopropylamino)-3-(propan-2-yl)-3H-imidazo[4,5-c]pyridin-6-yl]-2-oxo-1-[(1S,3S)-3-{3-Azabicyclo[3.2.1]octan-3-yl}cyclobutyl]-1,2-dihydrospiro[indole-3,4′-piperidin]-1′-yl}carbonyl)-4-methylpiperidine-1-carbonyl]piperidin-1-yl}pyridin-3-yl)piperidine-2,6-dione] | < 100 nM | > 85% |
| CC(C)n1cnc2cc(-c3ccc4c(c3)N([C@H]3C[C@@H](N5CCCCC5)C3)C(=O)C43CCN(C(=O)[C@H]4CC[C@H](CNC(=O)C5CCN(c6ccc(C7CCC(=O)NC7=O)cn6)CC5)CC4)CC3)nc(NC3CC3)c21 (mixture of isomers) [Example 291, 1-{5-[(3RS)-2,6-dioxopiperidin-3-yl]pyridin-2-yl}-N-{[(1R,4R)-4-({6-[4-(cyclopropylamino)-3-(propan-2-yl)-3H-imidazo[4,5-c]pyridin-6-yl]-2-oxo-1-[(1S,3S)-3-(piperidin-1-yl)cyclobutyl]-1,2-dihydrospiro[indole-3,4′-piperidin]-1′-yl}carbonyl)cyclohexyl]methyl}piperidine-4-carboxamide] | 100 to 500 nM | 70 to 85% |
| CC(C)n1cnc2cc(-c3ccc4c(c3)N([C@H]3C[C@@H](N5CCCCC5)C3)C(=O)C43CCN(C(=O)C4CCN(C(=O)[C@@H]5CCN(c6ccc(C7CCC(=O)NC7=O)cn6)C5)CC4)CC3)nc(Nc3ccccc3F)c21 (mixture of isomers) [Example 47, (3RS)-3-{6-[(3R)-3-{4-[(6-{4-[(2-fluorophenyl)amino]-3-(propan-2-yl)-3H-imidazo[4,5-c]pyridin-6-yl}-2-oxo-1-[(1S,3S)-3-(piperidin-1-yl)cyclobutyl]-1,2-dihydrospiro[indole-3,4′-piperidin]-1′-yl)carbonyl]piperidine-1-carbonyl}pyrrolidin-1-yl]pyridin-3-yl}piperidine-2,6-dione] | 100 to 500 nM | 50 to 70% |

Other lines, results leading:

| DC50 | Dmax | SMILES |
| --- | --- | --- |
| 100 to 500 nM | 50 to 70% | CC(C)n1cnc2cc(-c3ccc4c(c3)N([C@H]3C[C@@H](N5CCCCC5)C3)C(=O)C43CCN(C(=O)C4(C)CCN(C(=O)[C@H]5CC[C@H](N(C)c6ccc(C7CCC(=O)NC7=O)cc6)CC5)CC4)CC3)nc(NC3CC3)c21 (mixture of isomers) [Example 150, (3RS)-3-(4-{methyl[(1R,4R)-4-[4-({6-[4-(cyclopropylamino)-3-isopropylimidazo[4,5-c]pyridin-6-yl]-2-oxo-1-[(1S,3S)-3-(piperidin-1-yl)cyclobutyl]spiro[indole-3,4′-piperidin]-1′-yl}carbonyl)-4-methylpiperidine-1-carbonyl]cyclohexyl]amino}phenyl)piperidine-2,6-dione] |
| < 100 nM | > 85% | CC(C)Oc1nc(-c2ccc3c(c2)N([C@H]2C[C@@H](N4CCCCC4)C2)C(=O)C32CCN(C(=O)C3(C)CCN(C(=O)C4CCN(c5ccc(C6CCC(=O)NC6=O)cn5)CC4)CC3)CC2)cc2ncn(C(C)C)c12 (stereo partly drawn) [Example 169, 3-(6-{4-[4-methyl-4-({2-oxo-6-[3-(propan-2-yl)-4-(propan-2-yloxy)-3H-imidazo[4,5-c]pyridin-6-yl]-1-[(1S,3S)-3-(piperidin-1-yl)cyclobutyl]-1,2-dihydrospiro[indole-3,4′-piperidin]-1′-yl}carbonyl)piperidine-1-carbonyl]piperidin-1-yl}pyridin-3-yl)piperidine-2,6-dione] |
| < 100 nM | 70 to 85% | CC(C)n1cnc2cc(-c3ccc4c(c3)N([C@H]3C[C@@H](N5CCCCC5)C3)C(=O)C43CCN(C(=O)[C@H]4[C@@H]5CN(C(=O)C6CCN(c7ccc(C8CCC(=O)NC8=O)cn7)CC6)C[C@@H]54)CC3)nc(NC3CC3)c21 (mixture of isomers) [Example 260, (3RS)-3-(6-{4-[(1R,5S,6S)-6-({6-[4-(cyclopropylamino)-3-(propan-2-yl)-3H-imidazo[4,5-c]pyridin-6-yl]-2-oxo-1-[(1S,3S)-3-(piperidin-1-yl)cyclobutyl]-1,2-dihydrospiro[indole-3,4′-piperidin]-1′-yl}carbonyl)-3-azabicyclo[3.1.0]hexane-3-carbonyl]piperidin-1-yl}pyridin-3-yl)piperidine-2,6-dione] |
| < 100 nM | > 85% | CC(C)n1cnc2cc(-c3ccc4c(c3)N([C@H]3C[C@@H](N5CCCCC5)C3)C(=O)C43CCN(C(=O)CC4CCN(C(=O)[C@H]5CC[C@H](Oc6ccc(C7CCC(=O)NC7=O)cn6)CC5)CC4)CC3)nc(NC3CC3)c21 (stereo partly drawn) [Example 161, 3-(6-{[(1R,4R)-4-[4-(2-{6-[4-(cyclopropylamino)-3-(propan-2-yl)-3H-imidazo[4,5-c]pyridin-6-yl]-2-oxo-1-[(1S,3S)-3-(piperidin-1-yl)cyclobutyl]-1,2-dihydrospiro[indole-3,4′-piperidin]-1′-yl}-2-oxoethyl)piperidine-1-carbonyl]cyclohexyl]oxy}pyridin-3-yl)piperidine-2,6-dione] |
| < 100 nM | 70 to 85% | CC(C)n1cnc2cc(-c3ccc4c(c3)N([C@H]3C[C@@H](N5CCCCC5)C3)C(=O)C43CCN(C(=O)[C@@H]4CCN(C(=O)[C@H]5CC[C@H](Nc6ccc(C7CCC(=O)NC7=O)cc6)CC5)C4)CC3)nc(NC3CC3)c21 (mixture of isomers) [Example 2, (3RS)-3-(4-{[(1R,4R)-4-[(3R)-3-({6-[4-(cyclopropylamino)-3-(propan-2-yl)-3H-imidazo[4,5-c]pyridin-6-yl]-2-oxo-1-[(1S,3S)-3-(piperidin-1-yl)cyclobutyl]-1,2-dihydrospiro[indole-3,4′-piperidin]-1′-yl}carbonyl)pyrrolidine-1-carbonyl]cyclohexyl]amino}phenyl)piperidine-2,6-dione] |
| < 100 nM | 70 to 85% | CC(C)n1cnc2cc(-c3ccc4c(c3)N([C@H]3C[C@@H](N5CCCCC5)C3)C(=O)C43CCN(C(=O)[C@H]4CC[C@H](C(=O)N5CCC(Oc6ccc(C7CCC(=O)NC7=O)cn6)CC5)CC4)CC3)nc(Nc3ccccc3F)c21 (mixture of isomers) [Example 28, (3RS)-3-[6-({1-[(1R,4R)-4-[(6-{4-[(2-fluorophenyl)amino]-3-(propan-2-yl)-3H-imidazo[4,5-c]pyridin-6-yl}-2-oxo-1-[(1S,3S)-3-(piperidin-1-yl)cyclobutyl]-1,2-dihydrospiro[indole-3,4′-piperidin]-1′-yl)carbonyl]cyclohexanecarbonyl]piperidin-4-yl}oxy)pyridin-3-yl]piperidine-2,6-dione] |
| < 100 nM | 70 to 85% | CC(C)n1cnc2cc(-c3ccc4c(c3)N([C@H]3C[C@@H](N5CCCCC5)C3)C(=O)C43CCN(C(=O)C4CCN(C(=O)CC5CCN(c6ccc(C7CCC(=O)NC7=O)cn6)CC5)CC4)CC3)nc(Nc3ccccc3F)c21 (stereo partly drawn) [Example 92, 3-(6-(4-(2-(4-(6-(4-((2-fluorophenyl)amino)-3-isopropyl-3H-imidazo[4,5-c]pyridin-6-yl)-2-oxo-1-((1S,3S)-3-(piperidin-1-yl)cyclobutyl)spiro[indoline-3,4′-piperidine]-1′-carbonyl)piperidin-1-yl)-2-oxoethyl)piperidin-1-yl)pyridin-3-yl)piperidine-2,6-dione] |
| 100 to 500 nM | 50 to 70% | CC(C)n1cnc2cc(-c3ccc4c(c3)N([C@H]3C[C@@H](N5CCCCC5)C3)C(=O)C43CCN(C(=O)C4(C)CCN(C(=O)N5CC6(C5)CN(c5ccc(C7CCC(=O)NC7=O)cn5)C6)CC4)CC3)nc(NC3CC3)c21 (stereo partly drawn) [Example 184, 3-(6-{6-[4-({6-[4-(cyclopropylamino)-3-(propan-2-yl)-3H-imidazo[4,5-c]pyridin-6-yl]-2-oxo-1-[(1S,3S)-3-(piperidin-1-yl)cyclobutyl]-1,2-dihydrospiro[indole-3,4′-piperidine]-1′-yl}carbonyl)-4-methylpiperidine-1-carbonyl]-2,6-diazaspiro[3.3]heptan-2-yl}pyridin-3-yl)piperidine-2,6-dione] |
